Where two headings read alike, the source gives them in different places.
Experiments:
Serotonin Type 2 (5-HT2) [1] = target: T1, Serotonin Type 2 (5-HT2) (Rattus norvegicus, UniProt P14842); test: Receptor binding test RB3, [3H] Spiperone ligand, D-Lysergide specific binding agent
T1 construct: from tissue; frontal cortex in the cited method
Source text: (§1) As indication of the psychotropic activity and specificity of a compound, state of the art in vitro central nervous system receptor binding (RB) methodology can be employed. […] Inhibition of radiolabeled ligand binding at such sites is considered a measure of the test compound's ability to affect corresponding central nervous system function in vivo.
(§2) Some of the more common binding tests employed are listed below in Table 1.

dopaminergic activity = test: Inhibition of Apomorphine-Induced (APO) Stereotypy, blockade of dopaminergic activity; assay type: in vivo, rats; settings: Rattus norvegicus, read-out: APO ED50
Source text: The following in vivo test systems (Table 2) are illustrative of the conventional testing used to classify and differentiate a psychotropic agent from a non-specific CNS depressant. |2. Inhibition of Apomorphine-Induced (APO) Stereotypy - | an assessment of blockade of dopaminergic activity in rats | as measured by attenuation of the behavioral syndrome | caused by the dopamine agonist, apomorphine. cf: Janssen, | et al, Arzneimittel.

trained fasted rats = test: Conditioned Avoidance Response (CAR), attenuation of avoidance response to electrical shock; assay type: in vivo; settings: Rattus norvegicus
Source text: (§3) The following in vivo test systems (Table 2) are illustrative of the conventional testing used to classify and differentiate a psychotropic agent from a non-specific CNS depressant.

[2] = target: Dopamine/Spiperone/neuroleptic receptor site; test: Receptor binding test RB1, [3H] Spiperone ligand, D(+)Butaclamol specific binding agent
Source text: as §1, §2

Alpha-1 = test: Receptor binding test RB2, [3H] WB-4104 ligand, Phentolamine specific binding agent
Source text: as §1, §2

[3] = target: T2, Serotonin Type 1A (5-HT1A) (Bos taurus, UniProt F6Q2H9); test: Receptor binding test RB4, [3H] 8-OH-DPAT ligand, 8-OH-DPAT specific binding agent
T2 construct: from tissue
T2 sequence (F6Q2H9 1-422): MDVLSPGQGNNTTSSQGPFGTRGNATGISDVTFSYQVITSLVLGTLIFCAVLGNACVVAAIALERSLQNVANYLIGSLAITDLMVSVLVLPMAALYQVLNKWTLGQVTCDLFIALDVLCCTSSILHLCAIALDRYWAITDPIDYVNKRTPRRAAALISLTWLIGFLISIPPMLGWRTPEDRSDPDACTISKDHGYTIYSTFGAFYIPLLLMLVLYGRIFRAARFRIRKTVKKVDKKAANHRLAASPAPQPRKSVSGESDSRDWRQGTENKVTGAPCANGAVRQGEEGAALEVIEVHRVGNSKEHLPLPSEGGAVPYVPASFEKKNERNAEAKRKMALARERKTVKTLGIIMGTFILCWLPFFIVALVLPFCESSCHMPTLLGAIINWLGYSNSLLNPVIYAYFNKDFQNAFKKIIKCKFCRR
Source text: as §1, §2

psychotropic activity = test: in vivo screens predictive of antipsychotic activity, overall (Table 7); set-up: species or system rats; settings: compared to tiospirone
Source text: as §3
1. Conditioned Avoidance Response (CAR) - measure of a
drug's tranquilizing activity as determined by its'
attenuation of avoidance response to electrical shock in
trained fasted rats. cf: Albert, Pharmacologist, -4, 152 (1962);
2. Inhibition of Apomorphine-Induced (APO) Stereotypy -
an assessment of blockade of dopaminergic activity in rats
as measured by attenuation of the behavioral syndrome
caused by the dopamine agonist, apomorphine. cf: Janssen,
et al, Arzneimittel. Forsch., --17, 841 (1966).

[4] = system: central nervous system receptor; test: in vitro receptor binding (RB) tests, overall (Table 6)
Source text: As indication of the psychotropic activity and specificity of a compound, state of the art in vitro central nervous system receptor binding (RB) methodology can be employed. Certain compounds (commonly referred to as ligands) have been identified which preferentially bind to specific high affinity sites in brain tissue dealing with psychotropic activity. Inhibition of radiolabeled ligand binding at such sites is considered a measure of the test compound's ability to affect corresponding central nervous system function in vivo.
as §2

Serotonin Type 2 (5-HT2) [5] = target: T1, Serotonin Type 2 (5-HT2); settings: background statement; cited from earlier work
[6] = system: alpha-adrenergic receptor; settings: background statement; cited from earlier work
dopamine receptor = settings: following chronic administration; background statement; cited from earlier work
[7] = system: Serotonin Type 1A (5-HT1A); settings: background statement; cited from earlier work
sigma receptor = settings: background statement; cited from earlier work
dopamine D2 receptors = settings: background statement; cited from earlier work

T1 sequence (P14842 whole entry): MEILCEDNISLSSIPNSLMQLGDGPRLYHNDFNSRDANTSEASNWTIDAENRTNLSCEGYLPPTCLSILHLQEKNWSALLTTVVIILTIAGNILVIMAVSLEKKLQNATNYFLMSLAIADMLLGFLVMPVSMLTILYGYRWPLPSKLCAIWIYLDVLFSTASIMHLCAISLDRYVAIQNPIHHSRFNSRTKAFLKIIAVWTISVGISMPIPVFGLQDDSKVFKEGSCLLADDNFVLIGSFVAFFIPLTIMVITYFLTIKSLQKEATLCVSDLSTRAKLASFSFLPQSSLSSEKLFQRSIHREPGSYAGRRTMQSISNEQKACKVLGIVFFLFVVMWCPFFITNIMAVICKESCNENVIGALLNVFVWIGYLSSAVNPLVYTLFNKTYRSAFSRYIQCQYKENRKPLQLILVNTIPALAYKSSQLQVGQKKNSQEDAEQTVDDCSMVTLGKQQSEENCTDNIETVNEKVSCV

| Structure (SMILES) | IC50 (Serotonin Type 2 (5-HT2) [1]) [nM] | ED50 (dopaminergic activity; po) [mg/kg] | ED50 (trained fasted rats; po) [mg/kg] | IC50 [2] [nM] | IC50 (Alpha-1) [nM] | IC50 ([3]; read-out: RB4 IC50) [nM] | also measured |
| --- | --- | --- | --- | --- | --- | --- | --- |
| O=C1CC2(CCCC2)C(O)C(=O)N1CCCCN1CCN(c2nsc3ccccc23)CC1 (centres unmarked) [Reference # 10, 8-[4-[4-(1,2-Benzisothiazol-3-yl)-1-piperazinyl]butyl]-6-hydroxy-8-azaspiro[-4.5]decane-7,9-dione] | 1.1 | 26 | 8.4 |  |  |  |  |
| O=C1CC2(CCCC2)CC(=O)N1CCC(O)CN1CCN(c2nsc3ccccc23)CC1 (centres unmarked) [Reference # 7] | 10.2 |  | > 80 | 111 | 8.3 |  |  |
| CCCCCCCCCC(=O)OC1CCC2(CC(=O)N(CCCCN3CCN(c4nsc5ccccc45)CC3)C(=O)C2)C1 (centres unmarked) [Reference # 12, 8-[4-[4-(1,2-Benzisothiazol-3-yl)-1-piperazinyl]butyl]-7,9-dioxo-8-azaspiro[4.5]decan-2-yl Decanoate] | 10.2 |  |  | 153 | 7.22 | 35.8 |  |
| O=C1CC2(CCC(O)C2)CC(=O)N1CCCCN1CCN(c2n[s+]([O-])c3ccccc23)CC1 (centres unmarked) [Reference # 3] | 1480 |  |  | > 100000 | 372 | 1850 |  |
| O=C1CN(C2=NS(=O)(=O)c3ccccc32)CCN1 [Reference # 17, 4-(1,2-Benzisothiazol-1,1-dioxo-3-yl)-2-oxo-lH-piperazine] | > 100000 |  |  |  | 13100 | > 1000 |  |
| O=C1CC2(CCCC2)CC(=O)N1CCCCN1CCN(C2=NS(=O)(=O)c3ccccc32)CC1 [Reference # 1] | 25000 | > 100 | > 100 | > 1000 | 274 |  |  |
| O=C1CC2(CCCC2)CC(=O)N1CCCCN1CCN(c2n[s+]([O-])c3ccccc23)CC1 (centres unmarked) [Reference # ii, 8-[4-[4-(1-oxo-l,2-benzisothiazol-3-yl) -1-piperazinyl]butyl]-8-azaspiro[4.5]decane-7,9-dione, reference compound] | 276 | 9.6 | 7.6 | 3490 | 331 | 1120 | potency in in vivo screens predictive of antipsychotic activity (psychotropic activity): did not affect its potency; in vitro binding affinity compared to tiospirone [4]: attenuation of in vitro binding affinity |
| O=C1CCC2(C1)CC(=O)N(CCCCN1CCN(c3nsc4ccccc34)CC1)C(=O)C2 [Reference # 5, 2-Oxo-8-[4-[4-(1,2-benzisothiazol-3-yl)-1-piperazinyl]butyl]-8-azaspiro[4.5]decane-7,9-dione] | 2.92 |  |  | 68.3 | 1.3 |  | ED50 (dopaminergic activity; sc): > 50 mg/kg; ED50 (trained fasted rats; sc): 60.3 mg/kg |
| c1ccc2c(N3CCNCC3)nsc2c1 [Reference # 14, 4-(1,2-benzisothiazol-3-yl)1H-piperazine] | 110 |  |  | > 1000 | 510 |  | IC50 [3]: 179 nM |
| O=C1CC2(CCCC2)CC(=O)N1CCCCN1CCN(c2nsc3ccccc23)CC1 [Reference # i, 8-[4-[4-(1,2-benzisothiazol-3-yl)-1-piperazinyl]butyl]-8-azaspiro[4.5]decane-7,9-dione] |  | 13.1 | 10.9 |  | 47 |  | in vitro interactions at serotonin 5-HT2 receptors (Serotonin Type 2 (5-HT2) [5]): potent; in vitro interactions at alpha-adrenergic receptor sites [6]: potent; dopamine receptor supersensitivity (dopamine receptor): does not cause dopamine receptor supersensitivity; in vitro interactions at serotonin 5-HT1A receptors [7]: potent; in vitro interactions at sigma receptor sites (sigma receptor): potent; in vitro affinity for dopamine D2 receptors (dopamine D2 receptors): appreciable |
| O=C1CC2(CCC(O)C2)CC(=O)N1CCC(O)CN1CCN(c2nsc3ccccc23)CC1 (centres unmarked) [Reference # 9] | 19.8 |  |  | 491 | 7.15 |  |  |
| O=C1CC2(CCC(O)C2)CC(=O)N1CCCCN1CCN(c2nsc3ccccc23)CC1 (centres unmarked) [Reference # 2, 2-Hydroxy-8-[4-[4-(1,2-benzisothiazol-3-yl)-1-piperazinyl]butyl]-8-azaspiro[4.5]decane-7,9-dione] | 2.05 |  | > 100 | 52.5 | 0.876 |  |  |
| CC(C)(C)OC(=O)N1CCN(C2=NS(=O)(=O)c3ccccc32)CC1 [Reference # 18, 1,1-Dimethylethyl 4-(1,2-Benzisothiazol-1,1-dioxo-3-yl)-1piperazinecarboxylate] |  |  |  | > 1000 | > 100000 | > 100000 |  |
